Test results: patent US20230250096A1, “SUBSTITUTED PHENYL-1H-PYRROLO[2,3-c] PYRIDINE DERIVATIVES” (Janssen Pharmaceutica NV, priority 2021, published 2023)

Assays:
[1] = molecular target: T1, menin/MLL (terbium chelate-labeled menin, FITC-MBM1 peptide) (Homo sapiens, UniProt O00255, T541A); experiment: Menin/MLL homogenous time-resolved fluorescence (HTRF) assay; assay type: binding; settings: 30 min incubation
T1 construct: Menin (a.a 1-610-6xhis tag, 2.3 mg/mL in 20 mM Hepes)
T1 sequence (O00255 with tags, fused parts or gaps T541A): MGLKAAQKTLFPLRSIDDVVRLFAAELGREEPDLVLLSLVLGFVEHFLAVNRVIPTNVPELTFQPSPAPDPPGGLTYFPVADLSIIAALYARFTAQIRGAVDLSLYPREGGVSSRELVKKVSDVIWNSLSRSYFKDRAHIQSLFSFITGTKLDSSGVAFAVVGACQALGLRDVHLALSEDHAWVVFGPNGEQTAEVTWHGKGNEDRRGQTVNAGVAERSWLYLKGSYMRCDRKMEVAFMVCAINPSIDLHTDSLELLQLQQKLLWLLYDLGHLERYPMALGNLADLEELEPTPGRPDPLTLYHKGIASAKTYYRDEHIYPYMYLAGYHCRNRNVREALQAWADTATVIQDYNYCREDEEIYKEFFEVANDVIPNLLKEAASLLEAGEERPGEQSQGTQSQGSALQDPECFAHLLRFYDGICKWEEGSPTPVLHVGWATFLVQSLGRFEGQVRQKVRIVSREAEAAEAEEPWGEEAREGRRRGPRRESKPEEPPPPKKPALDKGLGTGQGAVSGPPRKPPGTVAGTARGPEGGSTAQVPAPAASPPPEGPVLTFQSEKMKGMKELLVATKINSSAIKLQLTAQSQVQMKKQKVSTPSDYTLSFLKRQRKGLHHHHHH
Outline: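 Competition binding read by time-resolved FRET (FITC 520 nm over terbium 490 nm) after compound meets labeled menin 1-610-His […] for 30 min, then FITC-MBM1 (75 nM) for 15 min, ambient temperature, 0.5% DMSO. Eleven-point four-fold dilutions, usually starting at 10 μM, fitted to four-parameter curves for IC50.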

[2] = test system: MEIS1 mRNA expression; experiment: MEIS1 mRNA expression assay (Quantigene Singleplex) in MOLM14 cells; assay type: cell-based, human; settings: 48 hours incubation
Outline: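 Read-out: MEIS1 transcript counts, background-subtracted and divided by RPL28, expressed as fold change over DMSO-treated cells, then dose-response modelled for IC50. MOLM14 cells (3,750/well) received graded compound for 48 h before lysis and QuantiGene hybridization at 55 °C.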

Row | IC50 [1] [nM] | IC50 ([2]; Homo sapiens, MOLM-14, 48 h) [nM] | IC50 [2] [nM] | Compound
1 | ~0.19 | < 1.7 | – | CC(=O)N1C[C@@H]2CN([C@H]3C[C@@H](C(C(C)C)N4CC[C@@H](Cc5cn(-c6ccc(F)cc6C(=O)N(C)C(C)C)c6cncc(C)c56)C4)C3)C[C@H]2C1 (mixture of isomers) [Compound 20]
2 | 30.7 | > 1000 | – | CC(=O)N1CCC(CN2CC[C@H](Cc3cn(-c4ccc(F)cc4[S@@]4(=O)=NCCC4)c4cncc(C)c34)C2)CC1 (single isomer, unassigned) [Compound 224a]
3 | 0.151 | 38 | – | Cc1cncc2c1c(C[C@@H]1CCN([C@H](CN(C)C)C3CCOCC3)C1)cn2-c1ccc(F)cc1C(=O)N(C)C(C)C (single isomer, unassigned) [Compound 240b]
4 | 0.076 | 30 | – | Cc1cncc2c1c(CC1CN(CC3CCN(C(=O)C(C)(C)O)CC3)C1)cn2-c1ccc(F)cc1C(=O)N(C)C(C)C [Compound 250]
5 | 0.149 | 184 | – | Cc1cncc2c1c(C[C@@H]1CCN(CC3CCOCC3)C1)cn2-c1ccc(F)cc1C(=O)N1CCC[C@]1(C)CO (single isomer, unassigned) [Compound 362a]
6 | 0.31 | ~270 | – | Cc1cncc2c1c(CC1CN(CC3CCOCC3)C1)cn2-c1ccc(F)cc1C(=O)N1CCC(O)C1(C)C (centres unmarked) [Compound 272]
7 | 0.046 | 59 | – | Cc1cncc2c1c(CC1CN(CC3(C)COC3)C1)cn2-c1ccc(F)cc1C(=O)N(C)C(C)C [Compound 286]
8 | 0.988 | – | > 1000 | Cc1cncc2c1c(CC1CNC(CC3CCOCC3)C1)cn2-c1ccc(F)cc1C(=O)N(C)C(C)C (single isomer, unassigned) [Compound 134b]
9 | 0.655 | – | 551 | CC(=O)N1CCC(CN2CCC(Cc3cn(-c4ccc(F)cc4C(=O)N(C)C(C)C)c4cncc(C)c34)C2C)CC1 (centres unmarked) [Compound 227]
10 | 1.7 | 18 | – | Cc1cncc2c1c(CC1CN(CC3CCOCC3)C1)cn2-c1ccc(F)cc1C(=O)N(C)C1CCOC1 (centres unmarked) [Compound 269]
11 | 0.052 | 35 | – | CC(=O)N1C[C@@H]2CN([C@H]3C[C@H]([C@@H](C(C)C)N4CC(Cc5cn(-c6ccc(F)cc6C(=O)N(C)C(C)C)c6cncc(Cl)c56)C4)C3)C[C@H]2C1 (single isomer, unassigned) [Compound 39b]
12 | 0.263 | 103 | – | CC(=O)N1CCC[C@@H](CN2CC(Cc3cn(-c4ccc(F)cc4C(=O)N(C)C(C)C)c4cncc(C)c34)C2)C1 (single isomer, unassigned) [Compound 90b]
13 | 0.054 | < 3.6 | – | COCCNCCCC(C(C)C)N1CC[C@@H](Cc2cn(-c3ccc(F)cc3C(=O)N(C)C(C)C)c3cncc(C)c23)C1 (mixture of isomers) [Compound 14]
14 | 0.023 | 7 | – | Cc1cncc2c1c(C[C@@H]1CCN(CC3CCN(C(=O)C4(O)CC4)CC3)C1)cn2-c1ccc(F)cc1C(=O)N(C)C(C)C [Compound 249]
15 | 0.841 | ~540 | – | CC(=O)N1C[C@@H]2CN([C@H]3C[C@@H](C(C(C)C)N4CC(Cc5cn(-c6ccc(F)cc6C(=O)N(C)C(C)C)c6cncc(Cl)c56)C4)C3)C[C@H]2C1 (single isomer, unassigned) [Compound 40a]
16 | 0.368 | 288 | – | Cc1cncc2c1c(CC1CN(CC3CCOCC3)C1)cn2-c1ccc(F)cc1C(=O)N1CCC(O)C1C (centres unmarked) [Compound 271]
17 | ~0.49 | > 1000 | – | CC(=O)N1C[C@@H]2CN([C@H]3C[C@@H](CN4CC[C@@H](Cc5cn(-c6ccc(F)cc6C(=O)N(C)C(C)C)c6cncc(C)c56)C4)C3)C[C@H]2C1 (single isomer, unassigned) [Compound 30]
18 | 0.25 | 315 | – | COCC[C@@H](C1CCOCC1)N1CC[C@@H](Cc2cn(-c3ccc(F)cc3C(=O)N(C)C(C)C)c3cncc(C)c23)C1 (single isomer, unassigned) [Compound 252b]
19 | 0.124 | – | 62 | Cc1cncc2c1c(C=C1CCN(CC3CCOCC3)C1)cn2-c1ccc(F)cc1C(=O)N(C)C(C)C (single isomer, unassigned) [Compound 523b]
20 | ~0.058 | 14 | – | Cc1cncc2c1c(C[C@@H]1CCN(CC3CCN(C(=O)C(C)(C)O)CC3)C1)cn2-c1ccc(F)cc1C(=O)N1[C@H](C)CC[C@@H]1C [Compound 344]

Row | IC50 [1] [nM] | IC50 ([2]; Homo sapiens, MOLM-14, 48 h) [nM] | IC50 [2] [nM] | Compound
21 | 0.119 | 444 | – | Cc1cncc2c1c(C[C@@H]1CCN(C3CCNC(=O)CC3)C1)cn2-c1ccc(F)cc1C(=O)N(C)C(C)C (mixture of isomers) [Compound 139]
22 | 0.569 | > 1000 | – | CC(=O)N[C@@H](C)CN1CC[C@H](Cc2cn(-c3ccc(F)cc3C(=O)N(C)C(C)C)c3cncc(C)c23)C1 (single isomer, unassigned) [Compound 119b]
23 | 0.071 | 41 | – | Cc1cncc2c1c(C[C@@H]1CCN(CC3CCCCC3)C1)cn2-c1ccc(F)cc1C(=O)N(C)C(C)C [Compound 193]
24 | 4.02 | > 1000 | – | CC(=O)N1CCC(CN2CCCC(Cc3cn(-c4ccc(F)cc4C(=O)N(C)C(C)C)c4cncc(C)c34)CC2)CC1 (centres unmarked) [Compound 160]
25 | 0.039 | 21 | – | Cc1cncc2c1c(C[C@@H]1CCN(CC3(C)CCN(C(N)=O)CC3)C1)cn2-c1ccc(F)cc1C(=O)N(C)C(C)C [Compound 217]
26 | 0.173 | 487 | – | CC(=O)N1CC(CN2CC(Cc3cn(-c4ccc(F)cc4C(=O)N(C)C(C)C)c4cncc(C)c34)C2)C1 [Compound 114]
27 | 0.602 | – | > 1000 | CC(=O)NC1CCC(N2CC[C@H](Cc3cn(-c4ccc(F)cc4C(=O)N(C)C(C)C)c4cncc(C)c34)C2)CC1 (some centres unmarked) [Compound 210]
28 | 1.06 | ~748 | – | CC(=O)N1CCC(CN2CCC[C@H](Cc3cn(-c4ccc(F)cc4C(=O)N(C)C(C)C)c4cncc(C)c34)C2)CC1 [Compound 145]
29 | 0.228 | – | 359 | Cc1cncc2c1c(C[C@@H]1CCN(CC3CCOCC3)C1)cn2-c1ccc(F)cc1C(=O)N1CCCC1C(C)O (single isomer, unassigned) [Compound 363a]
30 | 0.405 | 259 | – | Cc1cncc2c1c(C[C@@H]1CCN(C[C@H]3CC[C@H](C(=O)N4CCC4)CC3)C1)cn2-c1ccc(F)cc1C(=O)N(C)C(C)C [Compound 179]
31 | 0.601 | ~914 | – | Cc1cncc2c1c(CC1CN(CC3CCCC(=O)N3)C1)cn2-c1ccc(F)cc1C(=O)N(C)C(C)C (centres unmarked) [Compound 95]
32 | 0.235 | – | 93 | CC(=O)N1CCC(CN2CCC(Cc3cn(-c4ccc(F)cc4C(=O)N(C)C(C)C)c4cncc(C)c34)C2C)CC1 (centres unmarked) [Compound 229]
33 | 0.073 | 20 | – | CCN(C(=O)c1cc(F)ccc1-n1cc(C[C@H]2CCN(CC3CCN(C(C)=O)CC3)C2)c2c(C)cncc21)C(C)C [Compound 256]
34 | 0.087 | 91 | – | CCC([C@H]1C[C@@H](N2CCN(C(C)=O)CC2)C1)N1CC[C@H](Cc2cn(-c3ccc(F)cc3C(=O)N(C)C(C)C)c3cncc(C)c23)C1 (mixture of isomers) [Compound 25]
35 | 0.819 | ~616 | – | CC(=O)N1CCC(CN2CC[C@@H](Cc3cn(-c4ccc(F)cc4C(=O)N4C[C@@H](O)C[C@H]4C)c4cncc(C)c34)C2)CC1 [Compound 327]
36 | 3.27 | – | ~5120 | CC(=O)NC(C)CN1CCC(Cc2cn(-c3ccc(F)cc3C(=O)N(C)C(C)C)c3cncc(C)c23)C1 (single isomer, unassigned) [Compound 103]
37 | 0.104 | 62 | – | CC(=O)N1CCC(CN2CC[C@@H](Cc3cn(-c4ccc(F)cc4C(=O)N(C[C@H](C)O)C(C)C)c4cncc(C)c34)C2)CC1 (single isomer, unassigned) [Compound 320b]
38 | 1.02 | 1940 | – | CC(=O)N1C[C@@H]2[C@@H](CN3CC[C@@H](Cc4cn(-c5ccc(F)cc5C(=O)N(C)C(C)C)c5cncc(C)c45)C3)[C@@H]2C1 [Compound 187]
39 | 0.017 | 110 | – | CC(=O)N1C[C@@H]2CN(CCC[C@@H](C(C)C)N3CC[C@@H](Cc4cn(-c5ccc(F)cc5C(=O)N(C)C(C)C)c5cncc(Cl)c45)C3)C[C@H]2C1 (single isomer, unassigned) [Compound 18b]
40 | 0.156 | 114 | – | Cc1cncc2c1c(C[C@H]1CCN(CC3CCS(=O)(=O)CC3)C1)cn2-c1ccc(F)cc1C(=O)N(C)C(C)C (single isomer, unassigned) [Compound 124]
